How the values were obtained:
Karpas-422 cells = experiment: 53BP1 and γH2AX foci formation after doxorubicin; type: cell-based, human; settings: 24 h pretreatment
Description: After 4 h or 8 h of doxorubicin treatment, cells were fixed and immunofluorescence staining was performed with anti-γH2AX and anti-53BP1 antibodies. Cells shown were representative images based on the quantitation. Merge was the overlay of γH2AX and 53BP1 pictures. (B) and (C): Graphs depicted the percentage of cells with 53BP1 foci present at γH2AX containing break sites and the percentages of cells with γH2AX foci.
Immunofluorescence. Cells were fixed in either 10% formalin or methanol-acetone (1:1) for 10 min at −20*C. The cells were then permeabilized with 0.5% Triton-X-100 in PBS for 5 min at room temperature (RT), blocked in 10% normal goat serum (Sigma) for 30 min and stained with primary antibody for 1 h at RT. Cells were incubated with secondary antibody (anti-mouse or anti-rabbit IgG, Alexa Fluor 488/546) at a 1:600 dilution for 45 min at RT, and counterstained with Hoechst 33342 (Sigma) at 1:1000 dilution to visualize the nuclei. Images were captured using Zeiss Axioskop mot plus microscope with a 40× lens and analyzed using the AxioVision software.
To test this possibility, we treated DLBCL cells with DMSO or ACY957 for 24 h prior to a low dose of doxorubicin (50 nM) treatment. We examined γH2AX and 53BP1 foci formation at 4 h or 8 h post-doxorubicin treatment using immunofluorescence.
The percentage of cells containing 0, 1-5, 6-10 and greater than 10 γH2AX and 53BP1 foci were determined in at least 100 cells from three independent experiments.

[1] = tested on: Karpas-422 (EZH2GOF) cells; experiment: neutral comet assay of DSB repair; type: cell-based, human
Source text: (A) Measurement of repair efficiency in SUDHL5 (EZH2^WT) and Karpas-422 (EZH2^GOF) cells using neutral comet assay that detects only double-strand breaks (DSBs). In the comet, the head (H) represents intact DNA and the tail (T) represents the number of DSBs in a single cell. Tail moment is a measure of length and intensity of DNA in the tail, and the average tail moments from 100 comets are indicated within the figure for each cell/treatment combination. Doxo indicates doxorubicin; H121N indicates HDAC1,2 inhibitor. (B) DNA damage in EZH2GOF cells following knockdown of HDAC1,2 using siRNA. NT indicates non-targeting control siRNA; HDAC1,2 siRNA indicates combined treatment with HDAC1 siRNA and HDAC2 siRNA. (C) Karpas-422 cells treated with DMSO solvent or HDAC1,2 inhibitor were subjected to microlaser irradiation. H3K27me3, γH2AX, Bmi-1, and serine2-phosphorylated RNA Polymerase II (engaged in transcriptional elongation) were monitored at laser break sites (arrows) after 15 minutes of recovery time. Numbers overlaying the images indicate percentages of cells with γH2AX lines that co-localized with H3K27me3, Bmi-1, or Pol2Ser2-P lines from at least four independent experiments (p value<0.01).
Indeed, EZH2, H3K27me3, and HDAC1,2 all localize to sites of DNA breaks, which links them to DNA repair. […]

[2] = tested on: Hdac1,2 or Hdac3 knockout cell lines; experiment: Western blot of H4K5ac in conditional Hdac1,2 or Hdac3 knockout cells; type: cell-based, mouse
Description: (§1) For IC50 determination, recombinant HDAC enzymes were treated with HDAC1,2 or HDAC3 inhibitors in in vitro HDAC assays. (B). Western blots for H3K23ac using extracts from Pre-B-ALL SupB15 cells treated with increasing dose of HDAC1,2 inhibitor (ACY1035). (C). Hdac1^FI/FI, 2^FI/FI cells were infected with Ad-Cre virus to delete HDAC1 and HDAC2 (HDAC1,2 null) or uninfected (WT). (D). Hdac3^FI/FI cells were either uninfected (WT) or infected with Ad-Cre virus to delete Hdac3.

Hdac1,2 = experiment: in vitro enzyme assays, IC50 determination (FIG. 17A); type: biochemical
Description: as §1, with “(A). For” for “For”, “Hdac3. HDAC3-null cells were treated with DMSO or the HDAC1,2 selective inhibitor.” for “Hdac3.”
We have determined 2 μM (FIG. 17B) as the minimum dose for the ACY compounds, respectively, that when added to cells increased H3K23ac (a mark targeted by Hdac1,2 but not Hdac3).

[3] = tested on: non-transformed, mouse bone marrow Pro-B derived Baf3 cells or cord blood stem cells; experiment: cell death in non-transformed cells; type: cell-based; settings: 2 μM, within 72 hr
Source text: Therefore, transformed lymphoma cells are more sensitive to HDAC1,2 inhibition when compared to the untransformed normal B-cells. HDAC1,2 inhibitor causes replication fork collapse in S-phase to trigger DNA damage response, and transformed cancer cells have increased DNA replication when compared to normal B cells. […] In addition to this property, EZH2^GOF DLBCL cells also have increased DNA repair compared to EZH2^WT DLBCL cells (FIG. 34A), which can also be targeted by HDAC1,2 inhibitor as it impairs the HDAC1,2 regulated DNA repair processes used by EZH2^GOF DLBCL cells for their survival.

## Nc1ccc(-c2cccs2)cc1NC(=O)c1ccc2nc(N3CCNCC3)ccc2c1 [ACY-957, N-(2-amino-5-(thiophen-2-yl)phenyl)-2-(piperazin-1-yl)quinoline-6-carboxamide]
Karpas-422 cells; 4 h post-doxorubicin (50 nM)
  53BP1 foci co-localizing with γH2AX foci: decrease in the number of 53BP1 foci
Karpas-422 cells; 8 h doxorubicin
  percentage of cells with 53BP1 foci: increased to the level that was observed in the control DMSO-treated cells
  percentage of cells with γH2AX foci: even higher percentage of cells with 6-10 and greater than 10 γH2AX foci
[1]
  DSBs, comet tail moment: increase in comet tail moment
[2]
  H4K5ac in Hdac3-null cells: additive increase in H4K5ac
Hdac1,2
  inhibition of Hdac1,2 activities compared to Hdac3 (IC50 values): very selectively
[3]
  cell death: did not cause any cell death

From patent publication US11154551B2, “HDAC1,2 inhibitors and methods of using the same” (UNIVERSITY OF UTAH RESEARCH FOUNDATION, priority 2014, dated 2021)
